Data published in patent publication US8455475B2 (Gruenenthal GmbH, priority 2009, dated 2013).

Each molecule was assayed against T1, rat B1R (bradykinin receptor 1) (Rattus norvegicus, UniProt P97583) (assay: FLIPR Ca2+ assay (Fluo-4) on CHO K1 cells stably transfected with the B1R gene of the rat (rB1R cells): % inhibition at 10 μM / IC50, agonist Des-Arg9-bradykinin). Settings: CHO-K1, rat B1R.
T1 construct: expressed in transfected cells; host or cells: CHO K1 cells
T1 sequence (P97583 1-337): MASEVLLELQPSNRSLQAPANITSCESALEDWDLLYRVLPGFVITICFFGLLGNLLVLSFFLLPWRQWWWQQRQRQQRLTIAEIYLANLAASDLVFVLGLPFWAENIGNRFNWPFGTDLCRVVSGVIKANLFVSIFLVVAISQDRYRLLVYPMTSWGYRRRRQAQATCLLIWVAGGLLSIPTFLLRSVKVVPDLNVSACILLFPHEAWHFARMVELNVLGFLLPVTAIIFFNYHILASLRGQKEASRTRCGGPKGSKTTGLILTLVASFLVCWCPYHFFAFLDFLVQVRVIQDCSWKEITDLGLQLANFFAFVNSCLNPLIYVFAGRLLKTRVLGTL
Type: cell-based
In short: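 Stable CHO K1 lines, Fluo-4 dye, probenecid-containing buffer. Cpd 10 μM or dose range, 10–20 min, then EC80 agonist (h: Lys-Des-Arg9-BK; r: Des-Arg9-BK). Readout peak FC; % inhibition vs max; IC50 from n=2–3, N≥2.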

**Q.** With `CN(C(=O)c1ccccc1Cl)C1CCc2ccc(C(=O)N3CCC4(CCN(C(=O)c5ccc(F)cc5Cl)CC4)C3)cc21` (centres unmarked) [IND_CC-591, 2-Chloro-N-[6-[8-(2-chloro-4-fluoro-benzoyl)-2,8-diazaspiro[4.5]decane-2-carbonyl]-2,3-dihydro-1H-inden-1-yl]-N-methyl-benzamide] as the molecule, how does the inhibition at 10 µM read?
**A.** The inhibition at 10 µM was 62%.

**Q.** With `CN(C)c1ncc(CN2CCC3(CC2)CCN(C(=O)c2ccc4c(c2)C(NC(=O)c2ccccc2Cl)CC4)C3)cn1` (centres unmarked) [IND_CC-566, 2-Chloro-N-[6-[8-[(2-dimethylamino-pyrimidin-5-yl)-methyl]-2,8-diazaspiro[4.5]decane-2-carbonyl]-2,3-dihydro-1H-inden-1-yl]-benzamide] as the molecule, how does the inhibition at 10 µM read?
**A.** Its inhibition at 10 µM is 90%.

**Q.** For `O=C(NC1CCc2ccc(C(=O)N3CCC4(CCN(Cc5ccc[nH]5)CC4)C3)cc21)c1cc(Cl)ccc1F` (centres unmarked) [IND_CC-620, 5-Chloro-2-fluoro-N-[6-[8-(1H-pyrrol-2-yl-methyl)-2,8-diazaspiro[4.5]decane-2-carbonyl]-2,3-dihydro-1H-inden-1-yl]-benzamide], which inhibition at 10 µM is on record?
**A.** Its inhibition at 10 µM is 54%.

**Q.** For `Cc1c(CN2CCC3(CC2)CCN(C(=O)c2ccc4c(c2)C(NC(=O)c2c(F)cccc2Cl)CC4)CC3)cnn1C` (centres unmarked) [IND_CC-798, 2-Chloro-N-[6-[9-[(1,5-dimethyl-1H-pyrazol-4-yl)-methyl]-3,9-diazaspiro-[5.5]undecane-3-carbonyl]-2,3-dihydro-1H-inden-1-yl]-6-fluoro-benzamide], which inhibition at 10 µM is on record?
**A.** Its inhibition at 10 µM is 71%.

**Q.** Which inhibition at 10 µM does the source give for `O=C(Nc1ccc(Cl)cc1C(F)(F)F)N1CCC2(CC1)CCN(C(=O)c1ccc3c(c1)C(N(C(=O)c1ccccc1Cl)C1CC1)CC3)C2` (centres unmarked) [IND_CC-714, 2-[3-[(2-Chloro-benzoyl)-cyclopropyl-amino]-2,3-dihydro-1H-indene-5-carbonyl]-N-[4-chloro-2-(trifluoromethyl)-phenyl]-2,8-diazaspiro[4.5]decane-8-carboxylic acid amide] here?
**A.** The inhibition at 10 µM was 51%.

**Q.** How did the inhibition at 10 µM turn out when `O=C(NC1CCc2ccc(C(=O)N3CCC4(CCN(Cc5ccc6nccnc6c5)CC4)CC3)cc21)c1cc(Cl)ccc1F` (centres unmarked) [IND_CC-678, 5-Chloro-2-fluoro-N-[6-[9-(quinoxalin-6-yl-methyl)-3,9-diazaspiro[5.5]undecane-3-carbonyl]-2,3-dihydro-1H-inden-1-yl]-benzamide] was run?
**A.** Its inhibition at 10 µM is 82%.

**Q.** How did the inhibition at 10 µM turn out when `Cn1ccc2c(S(=O)(=O)N3CCC4(CCN(C(=O)c5ccc6c(c5)C(NC(=O)c5ccccc5Cl)CC6)CC4)CC3)cccc21` (centres unmarked) [IND_CC-612, 2-Chloro-N-[6-[9-[(1-methyl-1H-indol-4-yl)sulfonyl]-3,9-diazaspiro[5.5]undecane-3-carbonyl]-2,3-dihydro-1H-inden-1-yl]-benzamide] was run?
**A.** The inhibition at 10 µM was 65%.

**Q.** Which inhibition at 10 µM does the source give for `COc1cccc(F)c1CN1CCC2(CC1)CCN(C(=O)c1ccc3c(c1)C(NC(=O)c1cc(C(F)(F)F)ccc1Cl)CC3)C2` (centres unmarked) [IND_CC-637, 2-Chloro-N-[6-[8-[(2-fluoro-6-methoxy-phenyl)-methyl]-2,8-diazaspiro[4.5]-decane-2-carbonyl]-2,3-dihydro-1H-inden-1-yl]-5-(trifluoromethyl)-benzamide] here?
**A.** Its inhibition at 10 µM is 69%.

**Q.** `O=C(c1ccc2c(c1)C(N(C(=O)c1ccccc1Cl)C1CC1)CC2)N1CCC2(CCN(Cc3ccc(F)c(F)c3)CC2)C1` (centres unmarked) [IND_CC-521, 2-Chloro-N-cyclopropyl-N-[6-[8-[(3,4-difluoro-phenyl)-methyl]-2,8-diazaspiro[4.5]decane-2-carbonyl]-2,3-dihydro-1H-inden-1-yl]-benzamide] was tested. Which inhibition at 10 µM did it give?
**A.** Its inhibition at 10 µM is 66%.

**Q.** With `O=C(NC1CCc2ccc(C(=O)N3CCC4(CCN(CCc5ccccc5)CC4)CC3)cc21)c1cccc(Cl)c1Cl` (centres unmarked) [IND_CC-758, 2,3-Dichloro-N-[6-(9-phenethyl-3,9-diazaspiro[5.5]undecane-3-carbonyl)-2,3-dihydro-1H-inden-1-yl]-benzamide] as the molecule, how does the inhibition at 10 µM read?
**A.** The inhibition at 10 µM was 86%.

**Q.** Which inhibition at 10 µM does the source give for `N#Cc1ccc(CN2CCC3(CC2)CCN(C(=O)c2ccc4c(c2)C(NC(=O)c2cc(C(F)(F)F)ccc2Cl)CC4)CC3)cc1` (centres unmarked) [IND_CC-666, 2-Chloro-N-[6-[9-[(4-cyano-phenyl)-methyl]-3,9-diazaspiro[5.5]undecane-3-carbonyl]-2,3-dihydro-1H-inden-1-yl]-5-(trifluoromethyl)-benzamide] here?
**A.** Its inhibition at 10 µM is 78%.

**Q.** `O=C(NC1CCc2ccc(C(=O)N3CCC4(CCN(Cc5cc(F)ccc5F)CC4)C3)cc21)c1cc(C(F)(F)F)ccc1Cl` (centres unmarked) [IND_CC-634, 2-Chloro-N-[6-[8-[(2,5-difluoro-phenyl)-methyl]-2,8-diazaspiro[4.5]decane-2-carbonyl]-2,3-dihydro-1H-inden-1-yl]-5-(trifluoromethyl)-benzamide] was tested. Which inhibition at 10 µM did it give?
**A.** Its inhibition at 10 µM is 75%.

**Q.** With `O=C(NC1CCc2ccc(C(=O)N3CCC4(CCN(Cc5c(F)cccc5F)CC4)CC3)cc21)c1c(F)cccc1Cl` (centres unmarked) [IND_CC-788, 2-Chloro-N-[6-[9-[(2,6-difluoro-phenyl)-methyl]-3,9-diazaspiro[5.5]undecane-3-carbonyl]-2,3-dihydro-1H-inden-1-yl]-6-fluoro-benzamide] as the molecule, how does the inhibition at 10 µM read?
**A.** Its inhibition at 10 µM is 71%.

**Q.** For `N#Cc1ccc(CN2CCC3(CC2)CCN(C(=O)c2ccc4c(c2)C(N(C(=O)c2ccccc2Cl)C2CC2)CC4)C3)cc1` (centres unmarked) [IND_CC-539, 2-Chloro-N-[6-[8-[(4-cyano-phenyl)-methyl]-2,8-diazaspiro[4.5]decane-2-carbonyl]-2,3-dihydro-1H-inden-1-yl]-N-cyclopropyl-benzamide], which inhibition at 10 µM is on record?
**A.** The inhibition at 10 µM was 75%.

**Q.** `CCC(C)C(=O)N(C)C1CCc2ccc(C(=O)N3CCC4(CC3)CCN(c3ccncc3)CC4)cc21` (centres unmarked) [IND_CC-416, N,2-Dimethyl-N-[6-(9-pyridin-4-yl-3,9-diazaspiro[5.5]undecane-3-carbonyl)-2,3-dihydro-1H-inden-1-yl]-butyramide] was tested. Which inhibition at 10 µM did it give?
**A.** The inhibition at 10 µM was 101%.

**Q.** With `O=C(NC1CCc2ccc(C(=O)N3CCC4(CCN(Cc5ccc(F)c(F)c5)CC4)CC3)cc21)c1ccccc1Cl` (centres unmarked) [IND_CC-514, 2-Chloro-N-[6-[9-[(3,4-difluoro-phenyl)-methyl]-3,9-diazaspiro[5.5]undecane-3-carbonyl]-2,3-dihydro-1H-inden-1-yl]-benzamide] as the molecule, how does the inhibition at 10 µM read?
**A.** The inhibition at 10 µM was 102%.

**Q.** Which inhibition at 10 µM does the source give for `N#Cc1ccccc1S(=O)(=O)N1CCC2(CCN(C(=O)c3ccc4c(c3)C(NC(=O)c3ccccc3Cl)CC4)C2)CC1` (centres unmarked) [IND_CC-501, 2-Chloro-N-[6-[8-[(2-cyano-phenyl)sulfonyl]-2,8-diazaspiro[4.5]decane-2-carbonyl]-2,3-dihydro-1H-inden-1-yl]-benzamide] here?
**A.** The inhibition at 10 µM was 56%.

**Q.** Which inhibition at 10 µM does the source give for `O=C(NC1CCc2ccc(C(=O)N3CCC4(CCN(Cc5ccc(F)cc5Cl)CC4)CC3)cc21)c1ccccc1Cl` (centres unmarked) [IND_CC-529, 2-Chloro-N-[6-[9-[(2-chloro-4-fluoro-phenyl)-methyl]-3,9-diazaspiro[5.5]undecane-3-carbonyl]-2,3-dihydro-1H-inden-1-yl]-benzamide] here?
**A.** Its inhibition at 10 µM is 104%.

**Q.** How did the inhibition at 10 µM turn out when `O=C(NC1CCc2ccc(C(=O)N3CCC4(CCN(Cc5ccncc5)CC4)CC3)cc21)c1cc(Cl)ccc1F` (centres unmarked) [IND_CC-627, 5-Chloro-2-fluoro-N-[6-[9-(pyridin-4-yl-methyl)-3,9-diazaspiro[5.5]undecane-3-carbonyl]-2,3-dihydro-1H-inden-1-yl]-benzamide] was run?
**A.** Its inhibition at 10 µM is 54%.

**Q.** For `CC(C)CN1CCC2(CC1)CCN(C(=O)c1ccc3c(c1)C(NC(=O)c1cc(C(F)(F)F)ccc1Cl)CC3)C2` (centres unmarked) [IND_CC-687, 2-Chloro-N-[6-[8-(2-methyl-propyl)-2,8-diazaspiro[4.5]decane-2-carbonyl]-2,3-dihydro-1H-inden-1-yl]-5-(trifluoromethyl)-benzamide], which inhibition at 10 µM is on record?
**A.** The inhibition at 10 µM was 76%.
